In US20260273004A1, “AGENT AND METHOD FOR MAINTAINING OR IMPROVING CEREBRAL FUNCTION USING CRUDE DRUG” (CEREBRO PHARMA INC., priority 2023, published 2026):

Tests used:
[1] = tested on: mouse models of AD and PD; details: oral administration, Non-Patent Literature 18, 19; cited from earlier work
[2] = tested on: BDNF and nerve growth factor (NGF); details: oral administration; rat model of cerebral ischemia/reperfusion; Non-Patent Literature 20; cited from earlier work
Tau784 mice = experiment: Morris water maze test in Tau784 mice; format: in vivo, mouse; details: Tau784 mice aged 8-10 months; orally, one month; mixture of catechin 0.087 μg, chlorogenic acid 0.036 μg, rutin 0.123 μg, or catechin alone 0.087 μg; FIG. 24
Excerpt: The Tau784 mice are FTD models that express both three-repeat and four-repeat human tau at an adult age (with four-repeat human tau being dominantly expressed) due to the presence of a tau intron mutation (Non-Patent Literature 25: Umeda et al., Am. J. Pathol., (2013), 183[1]:211-25; and Non-Patent Literature 26: Umeda et al., Ann. Clin. Transl. Neurol., (2015), 2[3]:241-55).
To investigate the effect of mãmaki leaf hot water extract, the extract powder was suspended in water at concentrations of 3.33, 0.33, and 0.10 mg/mL by sonication. 300 μL of each suspension (containing 1,000, 100, and 30 μg of powder) was orally administered to male and female Tau784 mice five days a week (Monday to Friday) for one month. As a control, the same amount of water was administered to age-matched Tg and non-Tg littermates. For APP23, Huα-Syn (A53T), and C9-500 mice, a 0.33 mg/mL suspension (100 μg of powder/[…]) was orally administered to male and female mice for one month. […]
The spatial reference memory of each mouse was evaluated using the Morris water maze test (Non-Patent Literature 34: Kelley Bromley-Brits et al., J. Vis. Exp., (2011), 53e2920). […] Each mouse was placed in the pool and allowed to swim for 60 seconds, and the time taken to reach the platform was measured (referred to as escape latency). […]

## O=C(/C=C/c1ccc(O)c(O)c1)O[C@@H]1C[C@](O)(C(=O)O)C[C@@H](O)[C@H]1O [Chlorogenic acid, 5-O-caffeoylquinic acid]
[1]
  memory and motor function: improves their memory and motor function
[2]
  expression of BDNF and nerve growth factor (NGF): promote the expression of BDNF and nerve growth factor (NGF)

## catechin
Tau784 mice
  memory (Morris water maze test): showed a weaker effect than the polyphenol mixture
